Holding throughout (assay): biochemical
Common to all, as to parameters: KINOMEscan competition binding panel (Eurofins DiscoverX), single concentration, % inhibition
Common to all, as to conditions: read-out: 7 at 1 µM % inhibition

Test [1] addresses T1, ABL1(E255K)-phosphorylated (Homo sapiens, UniProt P00519, E255K).
T1 construct: phosphorylated
A digest of the protocol:
(§1)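 Compounds were submitted at 1 µM to a KINOMEscan assay covering more than 400 human kinases. The screen served to define the selectivity profile.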

Test [2] has as its target T2, ABL1(F317L)-nonphosphorylated (Homo sapiens, UniProt P00519, F317L).
T2 construct: nonphosphorylated
The method in brief:
as §1

The target of test [3] is T3, ABL1(Y253F)-phosphorylated (Homo sapiens, UniProt P00519, Y253F).
T3 construct: phosphorylated
The method in brief:
as §1

In a further test the target is T4, ABL1-phosphorylated (Homo sapiens, UniProt P00519).
T4 construct: phosphorylated
The method in brief: as §1

The target in a further test is ABL2 (Homo sapiens, UniProt P42684). The method in brief: as §1
In the next test the target is AKT1 (Homo sapiens, UniProt P31749). The method in brief:
as §1

The target in another test is CSF1R-autoinhibited (Homo sapiens, UniProt P07333). A digest of the protocol: as §1
A further test deals with CSNK2A2 (Homo sapiens, UniProt P19784). A digest of the protocol:
as §1

The target of the next test is T5, DMPK2 (Homo sapiens, UniProt Q6DT37).
T5 construct: gene CDC42BPG
A digest of the protocol: as §1

A further test deals with DYRK2 (Homo sapiens, UniProt Q92630). A digest of the protocol:
as §1

Another test deals with FES (Homo sapiens, UniProt P07332). The method in brief: as §1
For another test, the target named is T6, HPK1 (Homo sapiens, UniProt Q92918).
T6 construct: gene MAP4K1
A digest of the protocol:
as §1

For another test, the target named is T7, ICK (Homo sapiens, UniProt Q9UPZ9).
T7 construct: gene CILK1
The method in brief:
as §1

The target of another test is KIT(V559D,V654A) (Homo sapiens, UniProt P10721, V559D/V654A). A digest of the protocol: as §1
In another test the target is T8, MEK1 (Homo sapiens, UniProt Q02750).
T8 construct: gene MAP2K1
A digest of the protocol: as §1

Another test concerns the target PAK6 (Homo sapiens, UniProt Q9NQU5). The method in brief: as §1
In a further test the target is PIK3CA (Homo sapiens, UniProt P42336). A digest of the protocol:
as §1

The next test addresses PIP5K1C (Homo sapiens, UniProt O60331). A digest of the protocol:
as §1

Another test deals with PKMYT1 (Homo sapiens, UniProt Q99640). A digest of the protocol:
as §1

The next test has as its target PRKCQ (Homo sapiens, UniProt Q04759). The method in brief: as §1
A further test has as its target RET(V804M) (Homo sapiens, UniProt P07949, V804M). The method in brief:
as §1

The next test deals with RIOK1 (Homo sapiens, UniProt Q9BRS2). The method in brief:
as §1

A further test deals with SRC (Homo sapiens, UniProt P12931). The method in brief: as §1
Another test has as its target T9, TRKB (Homo sapiens, UniProt Q16620).
T9 construct: gene NTRK2
The method in brief:
as §1

T8 sequence (Q02750 whole entry): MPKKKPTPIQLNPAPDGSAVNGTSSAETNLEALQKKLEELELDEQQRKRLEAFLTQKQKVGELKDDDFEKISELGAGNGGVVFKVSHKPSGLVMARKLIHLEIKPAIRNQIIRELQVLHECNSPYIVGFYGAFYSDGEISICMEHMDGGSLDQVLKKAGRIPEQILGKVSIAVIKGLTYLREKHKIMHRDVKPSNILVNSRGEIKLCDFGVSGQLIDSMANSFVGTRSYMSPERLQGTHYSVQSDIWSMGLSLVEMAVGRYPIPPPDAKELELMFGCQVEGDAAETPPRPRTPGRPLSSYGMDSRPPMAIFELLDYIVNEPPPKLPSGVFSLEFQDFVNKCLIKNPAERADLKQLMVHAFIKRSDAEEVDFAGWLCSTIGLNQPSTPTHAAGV
T5 sequence (Q6DT37 whole entry): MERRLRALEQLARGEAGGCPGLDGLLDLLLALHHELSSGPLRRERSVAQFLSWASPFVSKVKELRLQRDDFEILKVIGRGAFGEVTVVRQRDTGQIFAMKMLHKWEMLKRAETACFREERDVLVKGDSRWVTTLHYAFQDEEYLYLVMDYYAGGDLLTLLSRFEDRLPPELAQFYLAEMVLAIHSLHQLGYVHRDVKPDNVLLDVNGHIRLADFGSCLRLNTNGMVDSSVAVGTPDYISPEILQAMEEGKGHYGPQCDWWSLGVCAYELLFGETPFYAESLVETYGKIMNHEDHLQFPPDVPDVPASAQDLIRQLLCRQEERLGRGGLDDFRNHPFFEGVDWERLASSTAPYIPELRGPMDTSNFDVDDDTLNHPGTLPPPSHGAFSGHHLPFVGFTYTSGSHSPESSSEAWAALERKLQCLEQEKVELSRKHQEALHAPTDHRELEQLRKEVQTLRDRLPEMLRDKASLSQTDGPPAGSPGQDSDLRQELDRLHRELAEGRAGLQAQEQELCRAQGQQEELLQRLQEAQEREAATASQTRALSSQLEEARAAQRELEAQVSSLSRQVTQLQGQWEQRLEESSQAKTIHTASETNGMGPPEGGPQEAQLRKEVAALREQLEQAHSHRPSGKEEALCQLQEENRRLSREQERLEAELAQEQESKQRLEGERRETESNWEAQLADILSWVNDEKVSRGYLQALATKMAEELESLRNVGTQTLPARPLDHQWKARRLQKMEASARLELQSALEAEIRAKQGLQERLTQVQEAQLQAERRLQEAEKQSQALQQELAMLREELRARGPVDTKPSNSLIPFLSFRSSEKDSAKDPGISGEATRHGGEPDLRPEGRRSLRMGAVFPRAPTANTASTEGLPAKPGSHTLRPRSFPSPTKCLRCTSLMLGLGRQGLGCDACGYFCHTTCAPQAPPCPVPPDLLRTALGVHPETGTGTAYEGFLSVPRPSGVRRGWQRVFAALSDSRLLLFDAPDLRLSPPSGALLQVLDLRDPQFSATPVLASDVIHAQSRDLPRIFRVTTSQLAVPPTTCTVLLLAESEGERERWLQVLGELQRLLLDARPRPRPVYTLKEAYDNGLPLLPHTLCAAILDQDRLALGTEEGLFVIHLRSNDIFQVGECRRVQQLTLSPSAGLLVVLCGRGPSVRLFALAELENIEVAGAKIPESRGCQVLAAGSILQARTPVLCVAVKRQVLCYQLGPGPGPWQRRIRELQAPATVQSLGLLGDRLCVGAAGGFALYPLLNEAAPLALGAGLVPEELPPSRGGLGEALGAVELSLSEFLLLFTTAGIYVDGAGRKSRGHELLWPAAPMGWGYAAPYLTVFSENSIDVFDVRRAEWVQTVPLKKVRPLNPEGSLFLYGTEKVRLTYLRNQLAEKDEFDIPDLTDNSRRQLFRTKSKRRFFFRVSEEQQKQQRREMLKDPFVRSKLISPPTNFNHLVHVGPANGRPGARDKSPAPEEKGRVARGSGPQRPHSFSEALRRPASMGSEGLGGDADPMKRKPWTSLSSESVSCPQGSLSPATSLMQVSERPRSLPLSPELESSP
T9 sequence (Q16620 whole entry): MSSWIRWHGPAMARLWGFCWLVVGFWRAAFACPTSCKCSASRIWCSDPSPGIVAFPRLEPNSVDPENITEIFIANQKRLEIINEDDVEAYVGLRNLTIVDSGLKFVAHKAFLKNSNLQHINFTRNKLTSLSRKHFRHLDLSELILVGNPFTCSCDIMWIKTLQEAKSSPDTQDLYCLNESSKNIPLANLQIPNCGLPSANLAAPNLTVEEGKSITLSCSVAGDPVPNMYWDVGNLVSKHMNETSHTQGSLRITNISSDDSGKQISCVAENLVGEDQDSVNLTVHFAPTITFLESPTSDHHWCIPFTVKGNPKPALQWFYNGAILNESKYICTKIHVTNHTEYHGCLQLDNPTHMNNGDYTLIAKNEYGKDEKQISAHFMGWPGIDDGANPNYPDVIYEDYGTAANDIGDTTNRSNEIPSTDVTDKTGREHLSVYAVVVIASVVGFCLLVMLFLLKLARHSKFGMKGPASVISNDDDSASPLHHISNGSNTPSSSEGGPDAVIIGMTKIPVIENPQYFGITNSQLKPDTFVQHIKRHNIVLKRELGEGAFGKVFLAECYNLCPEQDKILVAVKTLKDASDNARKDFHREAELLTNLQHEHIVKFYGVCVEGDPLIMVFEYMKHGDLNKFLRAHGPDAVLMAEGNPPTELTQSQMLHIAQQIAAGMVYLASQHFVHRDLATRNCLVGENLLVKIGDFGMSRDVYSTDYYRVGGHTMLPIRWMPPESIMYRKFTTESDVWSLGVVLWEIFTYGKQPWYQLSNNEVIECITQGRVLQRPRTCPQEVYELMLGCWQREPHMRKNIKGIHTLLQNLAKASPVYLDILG
Sequence of PRKCQ (Q04759 whole entry): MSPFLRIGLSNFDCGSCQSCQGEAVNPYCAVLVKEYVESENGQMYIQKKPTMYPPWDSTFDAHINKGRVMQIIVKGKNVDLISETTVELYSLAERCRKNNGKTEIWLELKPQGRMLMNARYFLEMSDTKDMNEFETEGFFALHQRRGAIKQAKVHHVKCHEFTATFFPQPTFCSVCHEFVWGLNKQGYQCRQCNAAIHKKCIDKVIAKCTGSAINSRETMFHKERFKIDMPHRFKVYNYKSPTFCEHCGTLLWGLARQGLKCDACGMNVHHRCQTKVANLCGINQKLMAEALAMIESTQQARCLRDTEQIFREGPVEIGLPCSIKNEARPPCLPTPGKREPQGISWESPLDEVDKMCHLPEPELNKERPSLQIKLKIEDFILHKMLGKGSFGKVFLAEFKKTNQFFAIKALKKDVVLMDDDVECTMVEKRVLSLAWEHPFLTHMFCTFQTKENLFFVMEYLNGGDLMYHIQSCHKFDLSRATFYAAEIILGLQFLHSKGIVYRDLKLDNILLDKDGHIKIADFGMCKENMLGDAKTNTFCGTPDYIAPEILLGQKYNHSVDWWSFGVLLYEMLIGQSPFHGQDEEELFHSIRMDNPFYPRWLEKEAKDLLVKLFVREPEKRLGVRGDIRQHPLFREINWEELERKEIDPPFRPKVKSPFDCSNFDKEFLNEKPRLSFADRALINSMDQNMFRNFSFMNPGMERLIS
Sequence of PKMYT1 (Q99640 whole entry): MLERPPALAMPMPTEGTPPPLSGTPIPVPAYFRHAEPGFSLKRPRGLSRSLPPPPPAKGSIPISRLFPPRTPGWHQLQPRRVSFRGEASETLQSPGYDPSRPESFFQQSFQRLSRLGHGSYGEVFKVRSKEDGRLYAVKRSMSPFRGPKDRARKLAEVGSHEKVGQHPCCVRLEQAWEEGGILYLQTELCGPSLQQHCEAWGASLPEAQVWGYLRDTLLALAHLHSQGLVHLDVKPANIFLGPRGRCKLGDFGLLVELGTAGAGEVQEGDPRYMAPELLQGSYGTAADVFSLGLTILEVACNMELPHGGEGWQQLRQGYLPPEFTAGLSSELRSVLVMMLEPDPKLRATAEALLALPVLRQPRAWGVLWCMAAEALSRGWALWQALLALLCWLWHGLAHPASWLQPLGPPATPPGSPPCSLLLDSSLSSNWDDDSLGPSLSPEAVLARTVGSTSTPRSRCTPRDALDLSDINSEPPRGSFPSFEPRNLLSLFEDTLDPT
Sequence of PAK6 (Q9NQU5 whole entry): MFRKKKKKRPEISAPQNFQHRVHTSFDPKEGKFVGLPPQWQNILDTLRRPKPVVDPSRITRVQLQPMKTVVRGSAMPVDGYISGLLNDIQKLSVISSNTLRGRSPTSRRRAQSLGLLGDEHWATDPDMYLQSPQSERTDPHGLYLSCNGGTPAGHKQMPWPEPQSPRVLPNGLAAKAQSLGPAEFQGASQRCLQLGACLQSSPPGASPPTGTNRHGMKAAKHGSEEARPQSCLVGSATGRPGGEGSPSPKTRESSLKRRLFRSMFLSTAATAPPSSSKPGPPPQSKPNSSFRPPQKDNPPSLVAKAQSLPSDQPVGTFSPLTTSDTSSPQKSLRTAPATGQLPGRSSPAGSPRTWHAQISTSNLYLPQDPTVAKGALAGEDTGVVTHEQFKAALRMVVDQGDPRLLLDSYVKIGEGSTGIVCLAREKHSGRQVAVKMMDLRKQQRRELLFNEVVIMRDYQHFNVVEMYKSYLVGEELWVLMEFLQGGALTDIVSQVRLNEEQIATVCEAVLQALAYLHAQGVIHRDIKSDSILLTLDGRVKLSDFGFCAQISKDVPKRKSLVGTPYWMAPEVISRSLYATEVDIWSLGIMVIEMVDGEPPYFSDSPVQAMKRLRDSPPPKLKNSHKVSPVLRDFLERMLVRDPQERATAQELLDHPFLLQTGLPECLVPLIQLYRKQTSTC
Sequence of CSNK2A2 (P19784 whole entry): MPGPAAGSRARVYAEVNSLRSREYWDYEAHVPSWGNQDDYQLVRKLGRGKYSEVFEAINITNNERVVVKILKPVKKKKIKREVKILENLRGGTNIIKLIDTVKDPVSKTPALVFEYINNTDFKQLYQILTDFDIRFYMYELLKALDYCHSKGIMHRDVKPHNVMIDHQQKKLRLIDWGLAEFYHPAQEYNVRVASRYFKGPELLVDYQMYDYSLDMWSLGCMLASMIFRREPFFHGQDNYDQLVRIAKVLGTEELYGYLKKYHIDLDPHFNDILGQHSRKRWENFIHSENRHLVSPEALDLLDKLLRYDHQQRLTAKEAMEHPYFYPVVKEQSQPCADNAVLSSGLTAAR

Broadly, the inhibition is the change of the read-out against control, counted positive when it falls. As for `CNS(=O)(=O)c1ccc(N(C)C)c(Nc2ncnc3cc(OC)c(OC)cc23)c1` [compound 7, 3-((6,7-dimethoxyquinazolin-4-yl)amino)-4-(dimethylamino)-N-methylbenzenesulfonamide], the inhibition at 1 µM in test [1] turned out to be 34%; in [2], 29%; in test [3], 38%; on ABL1-phosphorylated it was 26%; at ABL2 it was 0%; on AKT1, 0%. In addition, the inhibition at 1 µM came out at 39% on CSF1R-autoinhibited; 13% on CSNK2A2; 0% on DMPK2; 0% at DYRK2; 0% at FES; 0% at HPK1. Besides, the inhibition at 1 µM on ICK came to 7%; at KIT(V559D,V654A), 0%; at MEK1 it was 35%; on PAK6 it was 7%; on PIK3CA, 51%; on PIP5K1C, 33%. For the same molecule, the inhibition at 1 µM was 0% at PKMYT1; 28% at PRKCQ; 0% on RET(V804M); 0% on RIOK1; 0% on SRC; 14% at TRKB.

Values taken from PMC7180948, “New Insights into 4-Anilinoquinazolines as Inhibitors of Cardiac Troponin I–Interacting Kinase (TNNi3K)” (Molecules, 2020).
